This note sets out measurements from patent publication US7049313B2, “ATM inhibitors” (Kudos Pharmaceuticals Ltd., priority 2002, dated 2006).

“Also recorded” adds a separate entry of the source.

One series has as its system HeLa cells. The series is described as follows: Clonogenic survival assay, sensitisation to ionising radiation. It is filed as cell-based, human. How it is done: (§1) Sensitisation of Cells to Ionising Radiation or DNA Double Strand Break Chemotherapies
(§2) The HeLa line was used for ionising radiation studies while LoVo was used for studies with chemotherapeutic agents. […] After 1 hour, a concentration range of either etoposide (FIG. 2), camptothecin (FIG. 3) or doxorubicin (FIG. 4) was added. […] For all treatments, after a further 16 hours incubation, drug containing media was removed and fresh media added prior to a further incubation of 10 days before the staining of colonies with Giemsa. All compounds were solubilised in DMSO, with a final concentration on cells of no more than 0.1%. Resulting colonies containing >50 cells were counted as positives.

The test system of series [1] is HIV-1. Nature of the series: HIV-1 based LUCIA, all other cell lines tested. The settings on record: Human immunodeficiency virus 1. From the text: Retroviral Transductions (LUCIA).
For a further series, the system named is HIV-1 HXB2 AZT resistant. The series is described as follows: microbe, parasite or virus in culture. It counts as cell-based. The protocol:
(§3) HIV-1 4-day Replication Assays
(§4) C8166 T-cells were washed and infected with HIV-1 (strains HXB2wt and HXB2AZTres, RT amino acid changes 67N, 70R, 215F, 219Q) at low multiplicity of infection for one hour at room temperature. The cells were then washed and distributed (5×10^4 cells/well) in triplicate into the wells of 96-well cell culture plates containing different concentrations of inhibitors. The plates were then incubated at 37° C. for 4 days. The cell-free culture fluid was then harvested and assayed for levels of p24 viral antigen using a commercially available ELISA kit (Murex), according to the manufacturers' instructions. Cytotoxicity was evaluated by distributing (5×10^4 cells/well) uninfected C8166 T-cells into triplicate wells of 96-well cell culture plates containing different concentrations of inhibitor and incubating the plates at 37° C. After 4 days, 25 μl of XTT, which is metabolised by viable but not dead cells was added and the plates incubated for a further 3 hours at 37° C. Finally, the absorbance was read at a wavelength of 450 nm.

In a further series the test system is C8166 T-cells. The series is described as follows: Cytotoxicity on uninfected C8166 T-cells (XTT dye reduction). It is filed as cell-based. The conditions noted are these: 4 days, XTT, FIG. 8C. The protocol:
as §4
On the technique in general: Tetrazolium assays rely on reduction of a dye to a coloured formazan, in cell work by metabolically active cells.

Test in series [2]: as above
It counts as cell-based. The conditions noted are these: human, uninfected C8166 T-cells, read-out: 50% cytotoxic concentration (CC50). The protocol:
as §4

The test system of the next series is HIV-1 HXB2 wild type. Nature of the series: HIV-1 4-day replication assay, wild type strain (p24 antigen ELISA). It is filed as cell-based. How it is done: as §3, §4
On the technique in general: ELISA stands for enzyme-linked immunosorbent assay.

The next series relates to LoVo cells. Nature of the series: Clonogenic survival assay, sensitisation to DNA double strand break chemotherapeutics. It is filed as cell-based, human. The conditions noted are these: 10 μM of compound. The protocol: as §1, §2
The next series has as its target T1, HIV-1 RT (Human immunodeficiency virus type 1 group M subtype B, UniProt P04585).
T1 construct: chemilluminescent HIV-1 reverse transcriptase assays
The series is described as follows: Chemilluminescent HIV-1 reverse transcriptase assay. It counts as biochemical. The settings on record: FIG. 6. From the text:
Control RT inhibition using nevirapine (□) is also shown.

Series [3] deals with HIV-1. Nature of the series: HIV-1 based luciferase assay (LUCIA) on Jurkat T-cells. It counts as cell-based. The conditions noted are these: FIG. 5.

As a reminder, the IC50 is the concentration that gives 50% inhibition. Take `O=c1cc(-c2cccc3c2Sc2ccccc2S3)oc(N2CCOCC2)c1` [Compound 4, 2-Thianthren-1-yl-6-morpholin-4-yl-pyran-4-one]: the “sensitisation of cells to ionising radiation (% survival)” value in the series on HeLa cells (HeLa cells, compound at 0.5 μM and 2 μM, FIG. 1) is listed as “can sensitise cells to ionising radiation”. Also, in the series with HeLa cells (summary of FIGS. 1–4 (HeLa and LoVo)), the “sensitising tumour derived cell lines to DNA double strand break inducing agents” value is “significant effect on sensitising tumour derived cell lines to DNA double strand break inducing agents”. The IC50 is 1000 to 10000 nM in the series on HIV-1 [1]; 0.06 µM in the series on HIV-1 HXB2 AZT resistant (Human immunodeficiency virus 1, HXB2, C8166, 96 h, read-out: HIV-1 HXB2 (IC50 μM) AZT resistant); 0.1 µM in the series on HIV-1 HXB2 wild type (Human immunodeficiency virus 1, HXB2, 96 h, C8166 T-cells, 4-day replication, p24); approximately 1000 nM in the series with HIV-1 [3] (Human immunodeficiency virus 1, Jurkat, read-out: IC50 in HIV-1 based LUCIA, Jurkat T-cells). Also, the “inhibition of HIV-1 replication, wild-type versus AZT resistant strain” value in the series with HIV-1 HXB2 AZT resistant (4-day replication assays, FIG. 8A, 8B) is “inhibits HIV-1 replication equally well in both wild-type and AZT resistant HIV-1 strains; also recorded: inhibited HIV-1 replication equally well”. In the series on C8166 T-cells, the “cytotoxicity (percentage of viable cells)” value was “No significant cytotoxicity; also recorded: no significant cytotoxic effects”. In [2], the CC50 at 4 days was more than 20000 nM. Further, the “inhibition of HIV-1 replication” value in the series on HIV-1 HXB2 wild type (4-day replication assays, FIG. 8) is on record as “inhibits HIV-1 replication”. The “sensitisation of cells to etoposide (% survival)” value in the series with LoVo cells (FIG. 2) is listed as “can sensitise cells to etopside”. In addition, the “sensitisation of cells to camptothecin (% survival)” value in the series on LoVo cells (FIG. 3) is given as “can sensitise cells to camptothecin”. Further, the “sensitisation of cells to doxorubicin (% survival)” value in the series on LoVo cells (FIG. 4) is recorded as “can sensitise cells to doxorubicin”. The “inhibition of HIV-1 RT” value against HIV-1 RT is given as “does not inhibit HIV-1 RT”. Besides, the “inhibition of retroviral vector transduction (LUCIA)” value in the series on HIV-1 [3] (Jurkat T-cells) is recorded as “can inhibit recombinant retroviral vector infections; also recorded: efficiently inhibit HIV-1 LUCIA at low micromolar concentrations”.
